Test results published in patent EP0157762B1, “NEW SUBSTITUTED PIPERIDINOGUANIDINES, PREPARATION PROCESS AND PHARMACEUTICAL COMPOSITIONS CONTAINING THEM” (BOUCHARA S.A., priority 1983, dated 1985).

Assay: Solubility (qualitative)
Format: physicochemical

CNC(=NC(N)=O)NCC1CCN(CCCC(=O)c2ccc(F)cc2)CC1 [Exemple I]
solubilité dans les solvants organiques (organic solvents): peu soluble dans les solvants organiques
solubilité dans l'eau (water): soluble dans l'eau
